# Results published in patent publication US20250066389A1, “HETEROCYCLIC AMIDES AND METHODS OF USING THE SAME” (Rgenta Therapeutics, Inc., priority 2021, published 2025).
# Where a name gives a salt, the structure may show the parent alone.
# System: PMS1
# Assay: Mini-Gene Reporter Assay—PMS1 (firefly luciferase mini-gene reporter transiently transfected into HEK293 cells)
# Format: cell-based
# Conditions: Homo sapiens; at 5 uM; mini-gene firefly luciferase reporter in HEK293 cells; read-out: PMS1 % Effect at 5 uM
# Method in brief: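 HEK293 cells transiently transfected with a mini-gene construct (skipped exon with flanking introns/exons fused to firefly luciferase, pcDNA3.1) are incubated with compounds in duplicate. Exon inclusion raises luminescence; EC50 fitted by Levenberg-Marquardt; effect also scored at 5 μM.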
row,Structure (SMILES),activation at 5 µM [%]
1,CCOc1cc2nn(C)cc2cc1C(=O)Nc1cnc(N2CCC3CCCNC3C2)cn1 (stereo not shown) [Compound 303],50 to 75
2,CCOc1cc2nn(C)cc2cc1C(=O)Nc1cnc(NCC2CC3CCC2N3)cn1 (stereo not shown) [Compound 304],> 75
3,CCOc1cc2nn(C)cc2cc1C(=O)Nc1cnc(N2CCNCC3(CC3)C2)cn1 [Compound 305],> 75
4,CCOc1cc2nn(C)cc2cc1C(=O)Nc1cnc(N[C@@H]2CNC[C@@H](OC)C2)cn1 [Compound 306],< 50
5,CCOc1cc2nn(C)cc2cc1C(=O)Nc1cnc(N[C@@H]2CNC[C@@H](F)C2)cn1 [Compound 307],50 to 75
6,CCOc1cc2nn(C)cc2cc1C(=O)Nc1cnc(NC[C@H]2C[C@@](F)(CN)C2)cn1 [Compound 308],< 50
7,CCOc1cc2nn(C)cc2cc1C(=O)Nc1cnc(N2CC(O)(C3CCCN3)C2)cn1 (stereo not shown) [Compound 309],> 75
8,CCOc1cc2nn(C)cc2cc1C(=O)Nc1cnc(NCCC2CC3CCC(C2)N3)cn1 (stereo not shown) [Compound 310],< 50
9,CCOc1cc2nn(C)cc2cc1C(=O)Nc1cnc(NC(C)CC2CC3CCC(C2)N3)cn1 (stereo not shown) [Compound 311],< 50
10,CCOc1cc2nn(C)cc2cc1C(=O)Nc1cnc(NC[C@H]2CNCC(C)(C)O2)cn1 [Compound 312],< 50
11,CCOc1cc2nn(C)cc2cc1C(=O)Nc1cnc(NC2CNCC3(CCC3)C2)cn1 (stereo not shown) [Compound 313],< 50
12,CCOc1cc2nn(C)cc2cc1C(=O)Nc1cnc(N2C3CCCC2CNC3)cn1 [Compound 314],< 50
13,CCOc1cc2nn(C)cc2cc1C(=O)Nc1cnc(NC2CCC(C)NC2)cn1 (stereo not shown) [Compound 315],< 50
14,CCOc1cc2nn(C)cc2cc1C(=O)Nc1cnc(N2CC(NC)C3(CC3)C2)cn1 (stereo not shown) [Compound 316],50 to 75
15,CCOc1cc2nn(C)cc2cc1C(=O)Nc1cnc(N2CCCC(NC)CC2)cn1 (stereo not shown) [Compound 317],< 50
16,CCOc1cc2nn(C)cc2cc1C(=O)Nc1cnc(NCC2CNC(C)C2)cn1 (stereo not shown) [Compound 318],< 50
17,CCOc1cc2nn(C)cc2cc1C(=O)Nc1cnc(NC2CCCNC2C)cn1 (stereo not shown) [Compound 319],< 50
18,CCOc1cc2nn(C)cc2cc1C(=O)Nc1cnc(N2CC34CCCC3(CNC4)C2)cn1 (stereo not shown) [Compound 320],< 50
19,CCOc1cc2nn(C)cc2cc1C(=O)Nc1cnc(N2CC(N)CC2C)cn1 (stereo not shown) [Compound 321],> 75
20,CCOc1cc2nn(C)cc2cc1C(=O)Nc1cnc(NCC2C3CNCC32)cn1 (stereo not shown) [Compound 322],< 50
21,CCOc1cc2nn(C)cc2cc1C(=O)Nc1cnc(NC2CNCC(C)C2)cn1 (stereo not shown) [Compound 323],< 50
22,CCOc1cc2nn(C)cc2cc1C(=O)Nc1cnc(NC2C=CCNC2)cn1 (stereo not shown) [Compound 324],< 50
23,CCOc1cc2nn(C)cc2cc1C(=O)Nc1cnc(N2[C@H](CN)C[C@@H]3CCC[C@@H]32)cn1 [Compound 325],< 50
24,CCOc1cc2nn(C)cc2cc1C(=O)Nc1cnc(N2CC(N)C(C)(C)C2)cn1 (stereo not shown) [Compound 326],> 75

row,Structure (SMILES),activation at 5 µM [%]
1,CCOc1cc2nn(C)cc2cc1C(=O)Nc1cnc(NCC[C@@H]2C[C@H](OC)CN2)cn1 [Compound 327],< 50
2,CCOc1cc2nn(C)cc2cc1C(=O)Nc1cnc(NC(C)CNC)cn1 (stereo not shown) [Compound 328],< 50
3,CCOc1cc2nn(C)cc2cc1C(=O)Nc1cnc(NCC2CCC3(CCNCC3)CC2)cn1 [Compound 329],< 50
4,CCOc1cc2nn(C)cc2cc1C(=O)Nc1cnc(N2CC(CO)C3(CNC3)C2)cn1 (stereo not shown) [Compound 330],< 50
5,CCOc1cc2nn(C)cc2cc1C(=O)Nc1cnc(N2CC34CCCCC3(CNC4)C2)cn1 (stereo not shown) [Compound 331],< 50
6,CCOc1cc2nn(C)cc2cc1C(=O)Nc1cnc(N2CCCNC(C)C2)cn1 (stereo not shown) [Compound 332],> 75
7,CCOc1cc2nn(C)cc2cc1C(=O)Nc1cnc(NCC[C@H]2CCNC2)cn1 [Compound 333],< 50
8,CCOc1cc2nn(C)cc2cc1C(=O)Nc1cnc(NCc2ccc(CN3CCNCC3)cc2)cn1 [Compound 334],< 50
9,CCOc1cc2nn(C)cc2cc1C(=O)Nc1cnc(NCC2CCNCC2(F)F)cn1 (stereo not shown) [Compound 335],< 50
10,CCOc1cc2nn(C)cc2cc1C(=O)Nc1cnc(N2CC3(CNCCO3)C2)cn1 [Compound 337],< 50
11,CCOc1cc2nn(C)cc2cc1C(=O)Nc1cnc(N2CCC(C3CCCN3)CC2)cn1 (stereo not shown) [Compound 338],> 75
12,CCOc1cc2nn(C)cc2cc1C(=O)Nc1cnc(N2CCCC(NCCO)C2)cn1 (stereo not shown) [Compound 339],> 75
13,CCOc1cc2nn(C)cc2cc1C(=O)Nc1cnc(N2CCC[C@H]3CNC[C@H]32)cn1 [Compound 340],50 to 75
14,CCOc1cc2nn(C)cc2cc1C(=O)Nc1cnc(N2CCOC3(CCNC3)C2)cn1 (stereo not shown) [Compound 341],< 50
15,CCOc1cc2nn(C)cc2cc1C(=O)Nc1cnc(N2C[C@@H](F)C[C@H]2CNC)cn1 [Compound 342],< 50
16,CCOc1cc2nn(C)cc2cc1C(=O)Nc1cnc(N2CCC3(CCCN3)CC2)cn1 [Compound 343],> 75
17,CCNCCN(CC)c1cnc(NC(=O)c2cc3cn(C)nc3cc2OCC)cn1 [Compound 344],< 50
18,CCOc1cc2nn(C)cc2cc1C(=O)Nc1cnc(NCC2CNCCOC2)cn1 (stereo not shown) [Compound 347],< 50
19,CCOc1cc2nn(C)cc2cc1C(=O)Nc1cnc(NC2CCNCC2C)cn1 (stereo not shown) [Compound 348],50 to 75
20,CCOc1cc2nn(C)cc2cc1C(=O)Nc1cnc(NCC2COCCN2)cn1 (stereo not shown) [Compound 349],< 50
21,CCOc1cc2nn(C)cc2cc1C(=O)Nc1cnc(N2CCC3(CC2)CNCCO3)cn1 [Compound 350],50 to 75
22,CCOc1cc2nn(C)cc2cc1C(=O)Nc1cnc(N2CCCNCC2C)cn1 (stereo not shown) [Compound 351],< 50
23,CCOc1cc2nn(C)cc2cc1C(=O)Nc1cnc(N2CCC3(CCNCC3)C2)cn1 [Compound 352],> 75

# Same assay, conditions: Homo sapiens; mini-gene firefly luciferase reporter in HEK293 cells
row,IC50 [nM],Structure (SMILES)
1,1000 to 10000,CCOc1cc2nc(C)cn2cc1C(=O)Nc1ccc(N2CC3(CNC3)C2)nn1 [Compound 277]
2,1000 to 10000,CCOc1cc2nc(C)cn2cc1C(=O)Nc1ccc(N2CCCC(CNC)C2)nn1 (stereo not shown) [Compound 278]
3,< 1000,CCOc1cc2nc(C)cn2cc1C(=O)Nc1ccc(N2CCNC(CC)C2)nn1 (stereo not shown) [Compound 279]
4,< 1000,CCOc1cc2nc(C)cn2cc1C(=O)Nc1ccc(N2CCC(NC)C2)nn1 (stereo not shown) [Compound 280]
5,1000 to 10000,CCOc1cc2nc(C)cn2cc1C(=O)Nc1ccc(N2CC(C)NCC2C)nn1 (stereo not shown) [Compound 281]
6,< 1000,CCOc1cc2nc(C)cn2cc1C(=O)Nc1ccc(N2C[C@@H](C)N[C@@H](C)C2)nn1 [Compound 282]
7,1000 to 10000,CCOc1cc2nc(C)cn2cc1C(=O)Nc1ccc(N2CCCC(NC)C2)nn1 (stereo not shown) [Compound 283]
8,1000 to 10000,CCOc1cc2nc(C)cn2cc1C(=O)Nc1ccc(N2CCC3(CCNCC3)CC2)nn1 [Compound 284]
9,1000 to 10000,CCOc1cc2nc(C)cn2cc1C(=O)Nc1ccc(N2C[C@@H]3C[C@H]2CN3)nn1 [Compound 285]
10,1000 to 10000,CCOc1cc2nc(C)cn2cc1C(=O)Nc1ccc(N2CCC3(CCNC3)C2)nn1 (stereo not shown) [Compound 286]
11,1000 to 10000,CCOc1cc2nc(C)cn2cc1C(=O)Nc1ccc(N2CCC3(CC2)CNC3)nn1 [Compound 287]
12,1000 to 10000,CCOc1cc2nc(C)cn2cc1C(=O)Nc1ccc(N(C)C2CCNC2)nn1 (stereo not shown) [Compound 288]
13,1000 to 10000,CCOc1cc2nc(C)cn2cc1C(=O)Nc1ccc(N2CC3(CCNCC3)C2)nn1 [Compound 289]
14,< 1000,CCOc1cc2nc(C)cn2cc1C(=O)Nc1ccc(N2CCNCC2)nn1 [Compound 290]
15,1000 to 10000,CCOc1cc2nc(C)cn2cc1C(=O)Nc1ccc(N2CCNCC2C)nn1 (stereo not shown) [Compound 291]
16,1000 to 10000,CCOc1cc2nc(C)cn2cc1C(=O)Nc1ccc(N2CC(NC)C2)nn1 [Compound 293]
17,< 1000,CCOc1cc2nc(C)cn2cc1C(=O)Nc1ccc(N2CCCNCC2)nn1 [Compound 294]
18,< 1000,CCOc1cc2nc(C)cn2cc1C(=O)Nc1ccc(N2CCNC(C)C2)nn1 (stereo not shown) [Compound 295]
19,1000 to 10000,CCOc1cc2nc(C)cn2cc1C(=O)Nc1ccc(N2CC3(CC(NC)CO3)C2)nn1 (stereo not shown) [Compound 296]
20,1000 to 10000,CCNC1COC2(C1)CN(c1ccc(NC(=O)c3cn4cc(C)nc4cc3OCC)nn1)C2 (stereo not shown) [Compound 297]
21,1000 to 10000,CCOc1cc2nc(C)cn2cc1C(=O)Nc1ccc(N2CC3(CC(NC(C)C)CO3)C2)nn1 (stereo not shown) [Compound 298]
22,1000 to 10000,"CCOc1cc2nn(C)cc2cc1C(=O)Nc1ccc(N2CCN(C)[C@@H](C)C2)nn1 [Compound 299, (S)—N-(6-(3,4-dimethylpiperazin-1-yl)pyridazin-3-yl)-6-ethoxy-2-methyl-2H-indazole-5-carboxamide hydrochloride]"
23,1000 to 10000,"CCOc1cc2nn(C)cc2cc1C(=O)Nc1ccc(N2CCN(CC)[C@@H](C)C2)nn1 [Compound 300, (S)-6-ethoxy-N-(6-(4-ethyl-3-methylpiperazin-1-yl)pyridazin-3-yl)-2-methyl-2H-indazole-5-carboxamide hydrochloride]"
24,1000 to 10000,"CCOc1cc2nn(C)cc2cc1C(=O)Nc1ccc(N2CCN(C3CCOCC3)[C@@H](C)C2)nn1 [Compound 301, 6-ethoxy-2-methyl-N-{6-[(3S)-3-methyl-4-(oxan-4-yl)piperazin-1-yl]pyridazin-3-yl}-2H-indazole-5-carboxamide]"
25,< 1000,"COc1cc2nc(C)cn2cc1C(=O)Nc1cc(C)c(N2CCN[C@@H](C)C2)nn1 [Compound 302, 7-methoxy-2-methyl-N-{5-methyl-6-[(3S)-3-methylpiperazin-1-yl]pyridazin-3-yl}imidazo[1,2-a]pyridine-6-carboxamide]"

row,Structure (SMILES),IC50 [nM]
1,CCOc1cc2nc(C)cn2cc1C(=O)Nc1ccc(N(C)C2CCNCC2)nn1 [Compound 292],1000 to 10000
